Measurements as given in patent US11976059B2 (KOREA RESEARCH INSTITUTE OF CHEMICAL TECHNOLOGY, priority 2018, dated 2024).

Key:
Ba/F3 EGFR L858R/T790M = experiment: Ba/F3 cell viability, CellTiter-Glo; format: cell-based; conditions: for cell viability: administered alone, FIGS. 1 to 4; for cell viability compared to EAI045: co-administered with Cetuximab, 30 nM or 100 nM, FIGS. 6 and 7
Procedure: In order to confirm that the compound represented by formula 1 according to the present invention acted as an allosteric inhibitor against EGFR wild-type and mutants, the inhibitory effect on EGFR wild-type and mutants in Ba/F3 cell lines was evaluated. In addition, in order to evaluate the cellular activity when the compound according to the present invention was co-administered with an existing drug, the cellular activity according to the combined administration was evaluated using Cetuximab used alone or in combination with chemotherapy in metastatic colorectal cancer and metastatic squamous head and neck cancer.
Particularly, the activity of the compound of the present invention against the wild-type and mutant Ba/F3 EGFR cell lines was measured as follows using the CellTiter-Glo system of Promega. CellTiter-Glo assay is a method to confirm the cell viability by measuring ATP present in cells in cell culture state. Ba/F3 EGFR wild-type and Ba/F3 EGFR L858R, Ba/F3 EGFR L858R/T790M and Ba/F3 L858R/T790M/C797S mutant cell lines were purchased from Crown Bioscience and used. Ba/F3 EGFR wild-type and Ba/F3 EGFR L858R, Ba/F3 EGFR L858R/T790M and Ba/F3 L858R/T790M/C797S mutant cell lines were cultured in RPMI containing 10% FBS, 1% penicillin-streptomycin and 1 ug/ml of puromycine in a 37° C., 5% CO2 incubator.
Analysis of the cell survival inhibitory effect of the compound according to each EGFR mutant was performed according to the following analytical reaction recipe.
BaF3 cells were aliquoted into 2500 cells/50 ul per well of a 96 well cell culture plate and cultured for 24 hours, to which 50 ul of the compound represented by formula 1 was treated at the concentrations of 0, 0.03, 0.1, 0.3, and 1 μM. The plate treated with the compound was reacted in a 37° C. incubator for 72 hours, and then left at room temperature for 30 minutes according to the CellTiter-Glo assay instruction to maintain the plate temperature at room temperature. Thereafter, 100 μl of CellTiter-Glo reagent was treated to each well of the plate, followed by shaking incubation at room temperature for 10 minutes. Finally, the […] was quantitatively measured using a luminometer, and the ability of the compound to inhibit cell viability was confirmed. The values measured at concentrations of the compound were analyzed using Prism program (version 5.01, Graphpad Software, Inc.), and the IC50 value, an index of the inhibitory ability of the compound, was calculated.

[1] = molecular target: EGFR L858R/T790M/C797S mutant enzyme (Homo sapiens (Human), UniProt P00533, C797S/L858R/T790M); experiment: EGFR mutant enzyme inhibition, HTRF system (Cisbio); format: biochemical; conditions: ATP 1 mM, 37° C. for 2 hours
Chain of EGFR L858R/T790M/C797S mutant enzyme (P00533 25-1210 T790M/C797S/L858R): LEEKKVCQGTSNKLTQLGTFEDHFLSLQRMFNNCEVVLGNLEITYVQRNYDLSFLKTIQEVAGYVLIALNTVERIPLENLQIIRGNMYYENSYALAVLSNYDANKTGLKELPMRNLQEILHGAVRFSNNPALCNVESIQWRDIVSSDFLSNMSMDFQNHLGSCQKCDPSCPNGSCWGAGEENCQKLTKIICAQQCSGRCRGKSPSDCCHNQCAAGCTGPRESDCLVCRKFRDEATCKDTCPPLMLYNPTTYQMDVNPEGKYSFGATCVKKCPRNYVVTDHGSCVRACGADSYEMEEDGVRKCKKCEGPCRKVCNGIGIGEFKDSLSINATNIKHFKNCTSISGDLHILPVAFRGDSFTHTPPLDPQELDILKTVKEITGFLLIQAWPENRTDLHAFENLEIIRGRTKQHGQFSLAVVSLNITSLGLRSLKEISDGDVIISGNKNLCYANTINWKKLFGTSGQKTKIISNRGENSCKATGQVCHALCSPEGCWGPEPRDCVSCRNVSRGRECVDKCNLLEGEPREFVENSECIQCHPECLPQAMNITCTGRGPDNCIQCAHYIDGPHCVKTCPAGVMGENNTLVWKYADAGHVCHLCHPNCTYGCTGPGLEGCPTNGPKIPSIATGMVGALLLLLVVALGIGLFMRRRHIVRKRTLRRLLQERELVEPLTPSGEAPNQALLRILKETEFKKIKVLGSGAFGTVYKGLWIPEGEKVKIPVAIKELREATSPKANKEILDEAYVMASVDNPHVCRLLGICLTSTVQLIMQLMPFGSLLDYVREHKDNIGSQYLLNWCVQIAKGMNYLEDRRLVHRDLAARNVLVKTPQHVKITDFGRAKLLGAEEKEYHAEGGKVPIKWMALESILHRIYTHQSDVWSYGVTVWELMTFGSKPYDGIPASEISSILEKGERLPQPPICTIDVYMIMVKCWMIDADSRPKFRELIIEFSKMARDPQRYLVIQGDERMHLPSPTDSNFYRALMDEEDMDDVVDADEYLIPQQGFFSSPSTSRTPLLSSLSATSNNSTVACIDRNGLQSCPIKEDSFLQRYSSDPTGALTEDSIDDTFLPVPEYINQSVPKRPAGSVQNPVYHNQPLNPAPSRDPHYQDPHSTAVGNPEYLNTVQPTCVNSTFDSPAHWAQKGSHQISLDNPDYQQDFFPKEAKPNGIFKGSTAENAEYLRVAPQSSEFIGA
How it was run: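 Recombinant EGFR L858R/T790M/C797S preincubated with compound, then 1 mM ATP and 0.5 μM biotinylated peptide added; 2 h at 37 °C in Tris pH 7.5, MgCl2, DTT. HTRF detection (streptavidin-XL665, Eu anti-phosphotyrosine), 615/665 nm ratio; IC50 from 7 concentrations.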

IC50 [1] | SMILES | cell viability (Ba/F3 EGFR L858R/T790M) | cell viability compared to EAI045 (Ba/F3 EGFR L858R/T790M)
8 nM | O=C1c2cc(-c3ccc(N4CCNCC4)cc3)ccc2CN1[C@@H](c1cc2ccccc2[nH]1)c1cc(F)ccc1O [Example 32, (R)-2-((5-fluoro-2-hydroxyphenyl)(1H-indole-2-yl)methyl)-6-(4-(piperazine-1-yl)phenyl)isoindolin-1-one] | increased cell viability | significantly reduced the cell viability
12 nM | O=C1c2cc(-c3ccc(N4CCNCC4)cc3)ccc2CN1[C@@H](c1cc2ccccc2[nH]1)c1cc(Cl)ccc1O [Example 33, (R)-2-((5-chloro-2-hydroxyphenyl)(1H-indole-2-yl)methyl)-6-(4-(piperazine-1-yl)phenyl)isoindolin-1-one] | increased cell viability | significantly reduced the cell viability
